Source: patent US11970466B1, “4-((5-(3-fluorophenyl)-4-phenyl-4H-1,2,4-triazol-3-ylthio)methyl)benzoic acid as an antimicrobial compound” (KING FAISAL UNIVERSITY, priority 2023, dated 2024)

Legend:
Format in all cases: cell-based
Escherichia coli = experiment: Agar plate disc-diffusion, antibacterial inhibition zone; conditions: Escherichia coli (Gram negative), nutrient agar, 37° C., 48 hours
Experimental: (§1) The agar plate disc-diffusion method was applied. Sterilized filter papers (6 mm in diameter) were wetted with 10 μL of a solution of 4-((5-(3-fluorophenyl)-4-phenyl-4H-1,2,4-triazol-3-ylthio)methyl)benzoic acid (III) to be tested, containing 10 mg/mL in DMSO, and the discs were allowed to air dry. The discs were then placed onto the surface of agar plates (nutrient agar for bacteria and Sabouraud's dextrose agar for fungi) seeded with the test organism. Each plate contained 15 mL of the agar medium, previously seeded with 0.2 mL of the broth culture of each organism pregrown for 18 hours. The plates were incubated at 37° C. for 48 hours, and 72 hours for fungi. The inhibition zones were measured in mm. Discs impregnated with DMSO were used as a control, and its inhibition zone was subtracted from the tested compound actual inhibition zone.

[1] = tested on: Chrysosporium keratinophilum; experiment: Agar plate disc-diffusion, antifungal inhibition zone; conditions: Sabouraud's dextrose agar, 72 hours
Experimental: as §1

Aspergillus flavus = experiment: as above; conditions: Sabouraud's dextrose agar, 72 hours
Experimental: as §1, with “Sterilized filter papers (6 mm in diameter) were wetted with 10 μL of a solution of 4-((5-(3-fluorophenyl)-4-phenyl-4H-1,2,4-triazol-3-ylthio)methyl)benzoic acid (III) to be tested, containing 10 mg/mL in DMSO, and the discs were allowed to air dry.” left out

Staphylococcus aureus = experiment: Agar plate disc-diffusion, antibacterial inhibition zone; conditions: Staphylococcus aureus (Gram positive), nutrient agar, 37° C., 48 hours
Experimental: as §1, with “Sterilized filter papers (6 mm in diameter) were wetted with 10 μL of a solution of 4-((5-(3-fluorophenyl)-4-phenyl-4H-1,2,4-triazol-3-ylthio)methyl)benzoic acid (III) to be tested, containing 10 mg/mL in DMSO, and the discs were allowed to air dry.” left out

Pseudomonas aeruginosa = experiment: as above; conditions: Pseudomonas aeruginosa (Gram negative), nutrient agar, 37° C., 48 hours
Experimental: as §1, with “Sterilized filter papers (6 mm in diameter) were wetted with 10 μL of a solution of 4-((5-(3-fluorophenyl)-4-phenyl-4H-1,2,4-triazol-3-ylthio)methyl)benzoic acid (III) to be tested, containing 10 mg/mL in DMSO, and the discs were allowed to air dry.” left out

Bacillus Cereus = experiment: as above; conditions: Bacillus Cereus (Gram positive), nutrient agar, 37° C., 48 hours
Experimental: as §1, with “Sterilized filter papers (6 mm in diameter) were wetted with 10 μL of a solution of 4-((5-(3-fluorophenyl)-4-phenyl-4H-1,2,4-triazol-3-ylthio)methyl)benzoic acid (III) to be tested, containing 10 mg/mL in DMSO, and the discs were allowed to air dry.” left out

[2] = A = concentration of comp. = 10,000 μL
[3] = B = concentration of comp. = 30,000 μL
[4] = C = concentration of comp. = 50,000 μL

Row | Structure (SMILES) | inhibition zone (Escherichia coli; [2]) | inhibition zone (Escherichia coli; [3]) | inhibition zone (Escherichia coli; [4]) | inhibition zone [1, 2] | inhibition zone [1, 3] | inhibition zone [1, 4] | inhibition zone (Aspergillus flavus; [2]) | inhibition zone (Aspergillus flavus; [3]) | inhibition zone (Aspergillus flavus; [4]) | inhibition zone (Staphylococcus aureus; [2]) | inhibition zone (Staphylococcus aureus; [3]) | inhibition zone (Staphylococcus aureus; [4]) | inhibition zone (Pseudomonas aeruginosa; [2]) | inhibition zone (Pseudomonas aeruginosa; [3]) | inhibition zone (Pseudomonas aeruginosa; [4]) | inhibition zone (Bacillus Cereus; [2]) | inhibition zone (Bacillus Cereus; [3]) | inhibition zone (Bacillus Cereus; [4])
1 | O=C(O)c1cn(C2CC2)c2cc(N3CCNCC3)c(F)cc2c1=O [Cip., ciprofloxacin] | 30 mm | 39 mm | 60 mm | 29 mm | 30 mm | 53 mm | 29 mm | 30 mm | 42 mm | 43 mm | 44 mm | 53 mm | 29 mm | 30 mm | 53 mm | 29 mm | 30 mm | 42 mm
2 | O=C(O)c1ccc(CSc2nnc(-c3cccc(F)c3)n2-c2ccccc2)cc1 [III, 4-((5-(3-fluorophenyl)-4-phenyl-4H-1,2,4-triazol-3-ylthio)methyl)benzoic acid] | 28 mm | 36 mm | 50 mm | 23 mm | 27 mm | 41 mm | 24 mm | 26 mm | 35 mm | 19 mm | 25 mm | 35 mm | 22 mm | 26 mm | 37 mm | 26 mm | 28 mm | 40 mm
